From PMC9811466, “Structural Features Affecting the Interactions and Transportability of LAT1-Targeted Phenylalanine Drug Conjugates” (Molecular Pharmaceutics, 2022)
“And” between values parts separate entries of the source, which are not always exact repeats. Equal entries are not always repeated. “Also recorded” adds a separate entry of the source. Where two headings read alike, the source gives them in different places.

Legend:
HEK-MOCK cells = experiment: Concentration-dependent cellular uptake into HEK-MOCK cells; type: cell-based, human; conditions: for Km: compounds 1-12; for Vmax: compounds 1-12, 2-400 μM, 10 min
Method: (§1) The concentrations for the compounds were in the range of 2–400 μM. Otherwise, the experiment was carried out as described above and analyzed by liquid chromatography coupled with an electrospray ionization (ESI) triple quadrupole mass spectrometer (LC–MS–MS). […]
(§2) The concentration-dependent uptake studies were performed by adding 2–400 μM of the tested compound in 250 μL of prewarmed HBSS buffer on the cell layer. […] After incubation, the cells were washed and lysed as described above. The lysate was collected from wells into an Eppendorf tube and centrifuged at 4 °C, the supernatant was collected, and the intracellular concentrations of studied compounds were analyzed by liquid chromatography coupled with an ESI triple quadrupole mass spectrometer (LC–MS–MS). The results were calculated from the standard curve that was prepared by spiking known amounts of each compound to the cell lysate and normalized to protein concentration. The protein concentrations on each plate were determined as a mean of three samples by Bio-Rad Protein Assay, based on the Bradford dye-binding method, using BSA as a standard protein and measuring the absorbance (595 nm) by a multiplate reader (EnVision, PerkinElmer, Inc., Waltham, MA, USA). All statistical analyses (Michaelis–Menten kinetic parameters) were performed using GraphPad Prism v. 5.03 software (GraphPad Software, San Diego, CA., USA). […]
(§3) After protein precipitation, the samples were centrifuged for 10 min with 10,000 g at 4 °C. The supernatant was then collected and transferred to vials for LC–MS/MS analysis. For BCH and gabapentin, cells were also lysed with 0.1 M NaOH, an aliquot was taken from the lysates, and perchloric acid (PCA) was added to precipitate the proteins. The samples were then centrifuged, and the supernatant was diluted 1:10 with H20 with 0.1% formic acid including the IS and transferred to vials for analysis.
(§4) The samples were analyzed with LC–MS/MS coupled with an Agilent 1200 series Rapid Resolution LC System (Agilent Technologies, Waldbronn, Germany) and an Agilent 6410 Triple Quadrupole with electrospray ionization (ESI) (Agilent Technologies, Palo Alto, CA, USA). […] The aqueous mobile phase was 0.1% formic acid in water (A), while the organic mobile phase was 0.1% formic acid in acetonitrile (B). […] For compound 4: 0–4 min 10% → 90% B, 4–6 min 90% B, 6–6.1 min 90% → 10%, 6.1–9 min 10%. For compound 5: 0–1 min 20% → 95% B, 1–4 min 95%, 4–4.1 min 95% → 20%, 4.1–7 min 20%. For compounds 6 and 9: 0–2 min 10% → 95%, 2–6 min 95%, 6–6.1 min 95% → 10%, 6.1–9 min 10%. For compound 8: 0–1 min 20% → 80%, 1–5.2 min 80%, 5.2–5.3 min 80% → 20%, 5.3–9 min 20%.

MCF-7 cells = conditions: cited from earlier work
hLAT1/4F2hc [1] = target: T1, hLAT1/4F2hc (Homo sapiens, UniProt Q01650); experiment: cis-inhibition of [14C]-L-leucine uptake in HEK-hLAT1 cells; type: cell-based; conditions: for [14C]-L-Leucine uptake inhibition % (50μM) / inhibition at 50 µM: 50 μM compound; for inhibition at 50 µM: read-out: [14C]-L-Leucine uptake inhibition % (50μM)
T1 construct: Invitrogen (host cells)
T1 sequence (Q01650 whole entry): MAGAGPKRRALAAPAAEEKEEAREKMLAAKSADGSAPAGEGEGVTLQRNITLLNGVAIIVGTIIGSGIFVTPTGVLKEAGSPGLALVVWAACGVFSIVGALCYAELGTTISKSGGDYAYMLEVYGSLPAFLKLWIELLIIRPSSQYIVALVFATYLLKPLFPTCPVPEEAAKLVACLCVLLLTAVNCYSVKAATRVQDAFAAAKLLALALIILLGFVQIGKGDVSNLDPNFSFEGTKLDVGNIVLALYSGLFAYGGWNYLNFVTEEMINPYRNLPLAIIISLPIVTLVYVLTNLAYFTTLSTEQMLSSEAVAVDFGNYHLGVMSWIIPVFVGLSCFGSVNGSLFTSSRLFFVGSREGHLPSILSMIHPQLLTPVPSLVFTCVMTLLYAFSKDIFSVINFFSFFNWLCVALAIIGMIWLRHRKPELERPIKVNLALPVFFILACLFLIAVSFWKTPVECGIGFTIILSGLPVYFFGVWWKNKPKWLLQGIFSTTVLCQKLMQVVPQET
T1 sequence (P08195 102-630 partner): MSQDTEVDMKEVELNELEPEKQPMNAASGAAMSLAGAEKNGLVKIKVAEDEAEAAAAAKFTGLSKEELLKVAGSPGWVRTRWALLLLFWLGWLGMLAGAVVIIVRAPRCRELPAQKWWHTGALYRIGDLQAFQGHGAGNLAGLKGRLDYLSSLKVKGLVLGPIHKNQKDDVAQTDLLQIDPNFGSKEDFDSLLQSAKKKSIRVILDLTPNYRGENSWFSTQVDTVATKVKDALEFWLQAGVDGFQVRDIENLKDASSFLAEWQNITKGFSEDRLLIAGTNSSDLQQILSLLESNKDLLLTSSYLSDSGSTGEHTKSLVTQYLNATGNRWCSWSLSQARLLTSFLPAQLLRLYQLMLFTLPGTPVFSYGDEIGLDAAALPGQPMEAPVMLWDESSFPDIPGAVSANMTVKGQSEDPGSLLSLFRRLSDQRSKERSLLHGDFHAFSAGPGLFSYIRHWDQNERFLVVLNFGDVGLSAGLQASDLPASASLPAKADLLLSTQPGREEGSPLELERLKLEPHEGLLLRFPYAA
Method: (§5) In the following experiments, the MCF-7, HEK-hLAT1, and HEK-MOCK cells were cultured, seeded, and preincubated as described above. The HBSS was removed, and the ability of the compounds to inhibit the uptake of a known LAT1 substrate, [^14C]-L-leucine (PerkinElmer, Waltham, MA, USA), was studied by incubating the cells at RT for 10 min in uptake buffer pH 7.4 (250 μL) containing 0.76 μM (0.1 mCi/mL) of [^14C]-L-leucine and 0.025–1800 μM of the studied compound (or HBSS as blank). After incubation, the reaction was stopped with ice-cold HBSS, and the cells were washed two times with ice-cold HBSS. The cells were then lysed with 250 μL of 0.1 M sodium hydroxide, the lysate was mixed with 1.0 mL of Emulsifier safe cocktail (PerkinElmer, Waltham, MA, USA), and the radioactivity was measured with a liquid scintillation counter (MicroBeta^2 counter, PerkinElmer, Waltham, MA, USA). The inhibition of [^14C]-L-leucine in the presence of the studied compounds as compared to the control (HBSS) was calculated as percentages (%).
Using the stably hLAT1/4F2hc expressing cell line, the compounds’ inhibitory efficiencies and uptake kinetics were determined via the cis-inhibition assay and uptake studies, respectively. (Table 1) Cis-inhibition is based on the competition between the ligand and LAT1 substrate [^14C]-L-leucine that results in inhibition of substrate uptake. The competitive uptake with L-leucine is reported as the IC50 value of L-leucine uptake and extent as inhibition percentage (%) at a given concentration.

hLAT1/4F2hc [2] = target: T1, hLAT1/4F2hc; experiment: Concentration-dependent cellular uptake into HEK-hLAT1 cells (LC-MS/MS, Michaelis-Menten); type: cell-based; conditions: HEK-hLAT1 cells, compounds 1-12; for Vmax: 2-400 μM, 10 min
Method: as §1, §2, §3, §4

hLAT1/4F2hc [3] = target: T1, hLAT1/4F2hc; experiment: as above; type: cell-based; conditions: difference in uptake HEK-hLAT1 vs HEK-MOCK, with docking poses; 2-100 μM curves
[4] = target: T2, LAT1 in MCF-7 human breast cancer cells (Homo sapiens, UniProt Q01650); conditions: MCF-7 cells; read-out: IC50 of [14C]-L-leucine uptake; cited from earlier work
T2 construct: wild-type MCF-7 human breast cancer cell line; endogenous in cells; host or cells: MCF-7 human breast cancer cells (wild type)
T2 sequence (Q01650 whole entry): as the sequence (Q01650 whole entry) above
T2 sequence (P08195 102-630 partner): as the sequence (P08195 102-630 partner) above

[5] = target: T2, LAT1 in MCF-7 human breast cancer cells; experiment: cis-inhibition of [14C]-L-leucine uptake in MCF-7 cells; type: cell-based; conditions: for inhibition at 50 µM: MCF7, MCF-7 cells
Method: Cells were cultured in DMEM (Gibco, ThermoFisher Scientific, Waltham, MA, USA) supplemented with L-glutamine (2 mM; ThermoFisher Scientific, Waltham, MA, USA), heat-inactivated fetal bovine serum (10%; Gibco, ThermoFisher Scientific, Waltham, MA, USA), penicillin (50 U/mL)-streptomycin (50 μg/mL) solution (ThermoFisher Scientific, Waltham, MA, USA), and hygromycin B solution (100 μg/mL) for transfected cells. HEK-hLAT1 and HEK-MOCK cells (passages 7–20) were seeded at a density of 5 × 10^5 cells/wells onto 24-well plates. The cells were used in the characterization, competition, and uptake studies 2 days after seeding. MCF-7 cells were seeded at a density of 1 × 10^5 and were used in the competition studies 1 day after seeding. The culture medium was removed, and the cells were washed with prewarmed Hanks’ balanced salt solution (HBSS; 125 mM NaCl, 4.8 mM KCl, 1.2 mM MgSO4, 1.2 mM KH2PO4, 1.3 mM CaCl2, 5.6 mM D-glucose, and 25 mM HEPES, pH 7.4). The cells were then incubated with HBSS at 37 °C for 10 min before the experiments.
as §5

[6] = Conversion of ester conjugate in 0.1 M NaOH (sample lysis); type: physicochemical
Method: For compound 9, the LLOQ was 0.05 nM with good linearity (R^2 > 0.983).[34] For the compounds 1, 7, and 12, the LLOQ was 12.5 nM, with a linear range of 12.5–2500 nM, and for 11, the LLOQ was 6.3 nM, over the range of 6.3–6250 nM.[28] For 10, the calibration curve was linear with a LLOQ of 1 ng/mL (accuracy ±15%), respectively.[26] For compounds 2–5, the LLOQ was 5.0 nM.[29] Methods were also selective, accurate (RSD < 15%), and precise (RSD < 15%) over the range of 5.0–1000 nM for 5 and for compounds 2–4 5.0–2000 nM. For compound 6, the LLOQ was 10 pmol/g.[33] Ketoprofen was linear with a range of 0.25–25 ng/mL, while compound 8 was completely converted to ketoprofen in 0.1 M NaOH within 30 min.

[7] = HEK-hLAT1 cells, compounds 1-12
[8] = HEK-hLAT1 cells, compounds 1-12, read-out: IC50 of [14C]-L-leucine uptake
[9] = HEK-hLAT1 cells, compounds 1-12, 50 µM

Row | Structure (SMILES) | Km (HEK-MOCK cells) | Vmax (HEK-MOCK cells) | Vmax (MCF-7 cells; MCF-7 cells, previous studies) | IC50 (hLAT1/4F2hc [1]) | [14C]-L-Leucine uptake inhibition % (50μM) (hLAT1/4F2hc [1]; [7]) | Km (hLAT1/4F2hc [2]) | Vmax (hLAT1/4F2hc [2]) | interaction class with LAT1 (interaction and transportability) (hLAT1/4F2hc [3]) | inhibition at 50 µM (hLAT1/4F2hc [1]; [7]) | IC50 (hLAT1/4F2hc [1]; [8]) | Km (hLAT1/4F2hc [2]; read-out: Km) | IC50 [4] | inhibition at 50 µM ([5]; 50 μM compound) | time to complete conversion to ketoprofen [6] | IC50 ([5]; MCF-7 cells) | [14C]-L-Leucine uptake inhibition % (50μM) (hLAT1/4F2hc [1]; [9]) | Km (MCF-7 cells; MCF-7 cell line) | Vmax (MCF-7 cells; MCF-7 cell line) | [14C]-L-Leucine uptake inhibition % (50μM) ([5]; MCF-7 cells, 50 μM compound, 50 µM)
1 | N[C@@H](Cc1ccc(OC(=O)NCCc2ccc(O)c(O)c2)cc1)C(=O)O [Compound 2] | 8.7 ± 12 µM | 19 pmol/min/mg of protein and 19±12 pmol/min/mg of protein | < 3 pmol/min/mg | > 100 µM | no inhibition | 103 ± 41 µM | 1521 pmol/min/mg of protein and 1521±364 pmol/min/mg of protein | highest interactions | – | – | – | – | – | – | – | – | – | – | –
2 | CC(C(=O)Nc1cccc(C[C@H](N)C(=O)O)c1)c1cccc(C(=O)c2ccccc2)c1 (stereo partly drawn) [Compound 5] | 109 ± 69 µM | 63±24 pmol/min/mg of protein | – | – | – | – | 63±7.5 pmol/min/mg of protein | medium interactions | 48 ± 1.8% | 11 µM | 19 ± 7.3 µM | 500 ± 50 nM | 93 ± 0.5% | – | – | – | – | – | –
3 | CC(C(=O)Oc1cccc(C[C@H](N)C(=O)O)c1)c1cccc(C(=O)c2ccccc2)c1 (stereo partly drawn) [Compound 8] | – | – | – | – | – | – | – | – | 24 ± 2.3% | > 100 µM | – | – | 83 ± 0.9% | ≤ 30 min | 0.4 ± 0.08 µM | – | – | – | –
4 | COc1cc(/C=C/C(=O)Nc2cccc(C[C@H](N)C(=O)O)c2)ccc1O [Compound 9] | 94 ± 45 µM | 149±41 pmol/min/mg of protein | – | – | – | – | – | low | – | > 100 µM | – | 1100 ± 80 nM | 79.7 ± 7.87% | – | – | not able to inhibit; also recorded: no inhibition | – | – | –
5 | CCCN(CCC)S(=O)(=O)c1ccc(C(=O)Nc2cccc(C[C@H](N)C(=O)O)c2)cc1 [Compound 10] | – | 248±616 pmol/min/mg of protein | – | – | – | – | – | low | 10% | > 100 µM | – | – | 40% | – | 137 ± 1.6 µM | 11±9.9% | 15.2 µM | 111 pmol/min/mg | 45±1.7%
